Results from patent US6656952B2, “Cis-substituted fluoromethylpyrrolidine derivative” (Daiichi Pharmaceutical Co., Ltd., priority 1997, dated 2003).
Values after ≈ are worked out from the molar mass of the structure shown.

Assays:
Pr. mirabilis, IFO- 3849 = assay: Antibacterial activity (MIC), standard method of the Japan Society of Chemotherapy; type: cell-based; details: Proteus mirabilis, IFO3849, read-out: Antibacterial activity (minimum inhibitory concentration)
Procedure: (§1) Examples of the present invention are given below by way of illustration and not by way of limitation. The antibacterial activity of each compound of interest was measured in accordance with the standard method specified by the Japan Society of Chemotherapy, with the results shown in Table 1 as MIC values (μg/ml).

S. epidermidis, 56500 = assay: as above; type: cell-based; details: Staphylococcus epidermidis, read-out: Antibacterial activity (minimum inhibitory concentration)
Procedure: as §1

Ser. marcescens, 10100 = assay: as above; type: cell-based; details: Serratia marcescens, read-out: Antibacterial activity (minimum inhibitory concentration)
Procedure: as §1

S. flexneli, 2A 5503 = assay: as above; type: cell-based; details: read-out: Antibacterial activity (minimum inhibitory concentration)
Procedure: as §1

S. aureus, 209P = assay: as above; type: cell-based; details: Staphylococcus aureus, read-out: Antibacterial activity (minimum inhibitory concentration)
Procedure: as §1

X. maltophilia, IID 1275 = assay: as above; type: cell-based; details: Stenotrophomonas maltophilia, IID1275, read-out: Antibacterial activity (minimum inhibitory concentration)
Procedure: as §1

S. aureus, 870307 = assay: as above; type: cell-based; details: Staphylococcus aureus, read-out: Antibacterial activity (minimum inhibitory concentration)
Procedure: as §1

Ps. aeruginosa, 32121 = assay: as above; type: cell-based; details: Pseudomonas aeruginosa, read-out: Antibacterial activity (minimum inhibitory concentration)
Procedure: as §1

[1] = test system: Str. faecalis, ATCC-19433; assay: as above; type: cell-based; details: Enterococcus faecalis, ATCC19433, read-out: Antibacterial activity (minimum inhibitory concentration)
Procedure: as §1

Ps. aeruginosa, 32104 = assay: as above; type: cell-based; details: Pseudomonas aeruginosa, read-out: Antibacterial activity (minimum inhibitory concentration)
Procedure: as §1

Pr. vulgaris, 08601 = assay: as above; type: cell-based; details: Proteus vulgaris, read-out: Antibacterial activity (minimum inhibitory concentration)
Procedure: as §1

Str. pyogenes, G-36 = assay: as above; type: cell-based; details: Streptococcus pyogenes, G36, read-out: Antibacterial activity (minimum inhibitory concentration)
Procedure: as §1

E. coli, NIHJ = assay: as above; type: cell-based; details: Escherichia coli, read-out: Antibacterial activity (minimum inhibitory concentration)
Procedure: as §1

mouse peripheral blood = assay: Mouse peripheral blood micronucleus test; type: in vivo

SMILES	MIC (Pr. mirabilis, IFO- 3849)	MIC (S. epidermidis, 56500)	MIC (Ser. marcescens, 10100)	MIC (S. flexneli, 2A 5503)	MIC (S. aureus, 209P)	MIC (X. maltophilia, IID 1275)	MIC (S. aureus, 870307)	MIC (Ps. aeruginosa, 32121)	MIC [1]	MIC (Ps. aeruginosa, 32104)	MIC (Pr. vulgaris, 08601)	MIC (Str. pyogenes, G-36)	MIC (E. coli, NIHJ)	micronucleus test (micronucleus inducing action) (mouse peripheral blood)
COc1c(N2C[C@H](CF)[C@H](N)C2)c(F)cc2c(=O)c(C(=O)O)cn([C@@H]3C[C@@H]3F)c12 [Ex. 1, 7-[3-(S)-Amino-4-(S)-fluoromethyl-1-pyrrolidinyl]-6-fluoro-1-[2-(S)-fluoro-1-(R)-cyclopropyl]-1,4-dihydro-8-methoxy-4-oxoquinoline-3-carboxylic acid]	0.025 µg/mL (≈ 0.0608 µM)	0.05 µg/mL (≈ 0.122 µM)	0.05 µg/mL (≈ 0.122 µM)	0.006 µg/mL (≈ 0.0146 µM)	0.013 µg/mL (≈ 0.0316 µM)	0.2 µg/mL (≈ 0.486 µM)	0.2 µg/mL (≈ 0.486 µM)	0.05 µg/mL (≈ 0.122 µM)	0.1 µg/mL (≈ 0.243 µM)	0.2 µg/mL (≈ 0.486 µM)	0.013 µg/mL (≈ 0.0316 µM)	0.1 µg/mL (≈ 0.243 µM)	≤ 0.003 µg/mL	
COc1c(N2C[C@@H](CF)[C@@H](N)C2)c(F)cc2c(=O)c(C(=O)O)cn(C3CC3)c12 [Comp. Ex. 1, 7-[3-(R)-Amino-4-(R)-fluoromethyl-1-pyrrolidinyl]-1-cyclopropyl-6-fluoro-1,4-dihydro-8-methoxy-4-oxoquinoline-3-carboxylic acid, reference compound]	0.1 µg/mL (≈ 0.254 µM)	0.1 µg/mL (≈ 0.254 µM)	0.1 µg/mL (≈ 0.254 µM)	0.013 µg/mL (≈ 0.033 µM)	0.025 µg/mL (≈ 0.0636 µM)	0.2 µg/mL (≈ 0.508 µM)	0.78 µg/mL (≈ 1.98 µM)	0.1 µg/mL (≈ 0.254 µM)	0.2 µg/mL (≈ 0.508 µM)	0.2 µg/mL (≈ 0.508 µM)	0.013 µg/mL (≈ 0.033 µM)	0.2 µg/mL (≈ 0.508 µM)	≤ 0.003 µg/mL	
COc1c(N2C[C@H](CF)[C@H](N)C2)c(F)cc2c(=O)c(C(=O)O)cn(C3CC3)c12 [Ex. 2, 7-[3-(S)-Amino-4-(S)-fluoromethyl-1-pyrrolidinyl]-1-cyclopropyl-6-fluoro-1,4-dihydro-8-methoxy-4-oxoquinoline-3-carboxylic acid]	0.05 µg/mL (≈ 0.127 µM)	0.05 µg/mL (≈ 0.127 µM)	0.05 µg/mL (≈ 0.127 µM)	0.006 µg/mL (≈ 0.0153 µM)	0.013 µg/mL (≈ 0.033 µM)	0.1 µg/mL (≈ 0.254 µM)	0.39 µg/mL (≈ 0.991 µM)	0.1 µg/mL (≈ 0.254 µM)	0.1 µg/mL (≈ 0.254 µM)	0.2 µg/mL (≈ 0.508 µM)	0.013 µg/mL (≈ 0.033 µM)	0.1 µg/mL (≈ 0.254 µM)	≤ 0.003 µg/mL	
COc1c(N2C[C@@H](N)[C@@H](C)C2)c(F)cc2c(=O)c(C(=O)O)cn(C3CC3)c12 [formula (VI)]														positive
